Measured values as given in patent publication US20230157935A1, “GADUSOL-CONTAINING SUNSCREEN FORMULATIONS” (Arcaea, LLC, priority 2021, published 2023).

Experiments:
erythrocytes = experiment: Cell-based antioxidant protection in erythrocytes (CAP-e) assay
Procedure: The cell-based antioxidant protection in erythrocytes (CAP-e) assay (Honzel et. al., 2008, and Jensen G S. Cell-based antioxidant protection assay, also disclosed in U.S. Pat. No. 8,465,988, incorporated herein in its entirety by this reference) was used. This testing was selected to measure antioxidant power but, in addition, the method ensures that the antioxidant agent crosses the cell's lipid boundary layer so that only intracytoplasmic activity is measured. […] The tested concentrations for both gadusol and the porphyra-334 ranged from 0.001 to 3.33 mg/mL.

Comet assay = type: cell-based
Description: (§1) The amount of gadusol incorporated to provide the intended in vivo sunscreen SPF boosting activity can be from about 0.25, 0.50, 0.75, 1.0, 1.25, 1.50, 1.75, or 2.0% (w/w) in the sunscreen formulation that includes a physical/inorganic sunscreen active material, where any value can form an upper or lower endpoint, as appropriate. Still further, the amount of gadusol in the sunscreen formulation can be from about 0.25 to 2.0% (w/w), or from about 0.5 to 1.0% (w/w). In these, and possibly other amounts, gadusol suitably can provide a safe and effective sunscreen boosting effect when combined with sunscreen active ingredients. […] To summarize these safety tests, the cellular toxicity of gadusol was compared to that of a common sunscreen ingredient, oxybenzone. Vero E6 fibroblasts were used to evaluate toxicity. […] Toxicity towards E. coli was also not found.

Ames Test = type: cell-based
[1] = test system: human skin (subject's back); experiment: In vivo SPF determination (FDA 21 CFR 201.327, MEDp/MEDu)
Description: SPF can be measured in vivo according to the methodology set out in FDA 2011 Final Rule issued on Jun. 17, 2011, by the Federal Register. This method is very similar to the ISO 24444:2010 method used to measure SPF in the EU, as well as other countries. In fact, both methods are based on the International Sun Protection Factor (SPF) test method, COLIPA: Bruxelles, Belgium, 2006. The slight differences between the ISO and FDA methods are understood to generate no meaningful difference in the results. […] The main differences between the methods are the following: the calibration times of the UV source (each 12 months for the FDA, each 18 months for the ISO); the reference sunscreen products (P2 for the FDA and P2, P3 or P7 for the ISO); progressions of exposure times used. The disclosures of each of these in vivo SPF testing methods are incorporated herein their entirety by this reference.
The product is then labeled with the appropriate SPF value indicating the amount of sunburn protection provided by the product.
An in vivo SPF determination was conducted according to FDA, 21 CFR Sec. 201.327, subpart (i), SPF Test Procedure, Sunscreen Drug Products for Over-the-Counter Human Use, Final Monograph, Federal Register, Vol. 76, No. 117, Jun. 17, 2011, the disclosure of which is incorporated herein in its entirety by this reference. […]
For a baseline value, a series of 5 UV radiation doses expressed as Joules/square meter, increasing in 25% increments, was administered to two unprotected separate locations on each test subject's back, just below the shoulder blades and above the belt-line, to determine the initial unprotected MED (MEDu).
On Day 2, subjects returned to the testing laboratory within 16 to 24 hours following completion of the MEDu doses for evaluation of their responses, and to determine each subject's unprotected MED (MEDu). A subject's Minimal Erythemal Dose (MED) was the quantity of erythema effective energy, or dose corresponding to the first site that produced the first unambiguous erythema reaction with well-defined borders. […]

E. coli = experiment: Toxicity towards E. coli; type: cell-based
Description: as §1

Vero E6 fibroblasts = experiment: Cellular toxicity compared to oxybenzone; type: cell-based
Description: as §1

[2] = In vitro SPF determination on VitroSkin, absorbance scan 290-400 nm; type: physicochemical
Procedure: SPF can also be evaluated using an in vitro method that utilizes a synthetic/simulated skin as a test substrate. In this regard, VitroSkin® is an advanced testing substrate that effectively mimics the surface properties of human skin. It has been formulated to have topography, pH, critical surface tension, chemical reactivity and ionic strength that is similar to human skin.
SPF was also evaluated using an in vitro method that utilizes a synthetic/simulated skin as a test substrate. In this regard, VitroSkin® is an advanced testing substrate that effectively mimics the surface properties of human skin. It has been formulated to have topography, pH, critical surface tension, chemical reactivity and ionic strength that is similar to human skin. The procedure for in vitro testing was conducted according to a standard protocol. For testing, the test product was applied in a known amount to the substrate at an application density of 2 mg/cm^2. The in vitro SPF scores were determined using a Labsphere UV-1000 Ultraviolet Transmittance Analyzer. Spectral scans of absorbance of the artificial skin treated with a sample sunscreen formulation were performed in the UV region of 290-400 nm. The in vitro SPF was then calculated using the absorbance scan results. At least 5 in vitro SPF values were recorded for each example formulation and the averages calculated for reporting.

[3] = Folin-Ciocalteu antioxidant capacity; settings: about 0.3 to 10 mg/ml
[4] = Stability of aqueous gadusol under acidic conditions, spectrophotometric at 296 nm; type: physicochemical
Procedure: Yet further, the inventors have determined that the stability of aqueous gadusol can be improved when stored under acidic conditions. For example, 90% gadusol activity can be retained after 90 days at pH 2.5, where the concentration of gadusol is determined spectrophotometrically at 296 nm where it has an extinction coefficient of 21,800 M^−1cm^−1. A standardized concentration curve can be used to determine an amount of gadusol in a volume sampled from a test solution at various time periods. Therefore, storage under acidic conditions may be useful for stabilizing gadusol generally, e.g., prior to introduction into a topical formulation. Combining gadusol with another antioxidant may be useful for extending the shelf life or stability of gadusol in a topical formulation.

In the case of COC1=C(NCC(=O)O)C[C@@](O)(CO)CC1=N[C@H](C(=O)O)[C@@H](C)O [porphyra-334, reference compound], the “interference with the protective action of gadusol when combined” value (erythrocytes; gadusol and porphyra-334 combined) is reported as “did not interfere”.
With COC1=C(O)CC(O)(CO)C(O)C1=O (stereo not shown) [gadusol] the “toxicity in the comet assay” value (Comet assay) was “nor was it toxic”, the mutagenicity (Ames Test) was “not to be mutagenic” and the antioxidant activity (erythrocytes; 0.133 mg/ml) was “Some in vivo antioxidant activity”. The “antioxidant activity versus porphyra-334” value (erythrocytes; about 1 mg/ml) was “significantly more active”, the “in vivo SPF relative to SPF conferred by 10% ZnO alone” value ([1]; 0.5% gadusol (w/w) in 10% ZnO formulation) was “about 1.35 times” and the “in vivo SPF relative to SPF conferred by 10% ZnO alone” value ([1]; 0.75% gadusol (w/w) in 10% ZnO formulation) was about 1.51 times. For the same molecule, the “in vivo SPF relative to SPF conferred by 10% ZnO alone” value ([1]; 1.0% gadusol (w/w) in 10% ZnO formulation) was about 2.0 times, the “toxicity towards E. coli” value (E. coli) was “not found” and the cellular toxicity (Vero E6 fibroblasts) was “less toxic”. For the same molecule, the “in vitro SPF activity of gadusol by itself, formulation matrix (1.1) subtracted” value ([2]; 0.25-0.5% gadusol, no ZnO) was 2.5-2.8 SPF units, the “greater SPF when added to composition containing 10% ZnO” value ([2]; 0.5% (w/w) gadusol, in vitro) was about 50% and the “in vitro absorbance on addition to 10% ZnO sunscreen formulation” value ([2]; 0.5% gadusol, about 290 to about 325 nm, FIG. 6) was “significantly more absorbance”. For the same molecule, the “antioxidant power versus mycosporine compound from nori seaweed (porphyra-334)” value [3] was “substantially equivalent”, the gadusol activity retained ([4]; aqueous, after 90 days at pH 2.5) was 90% and the extinction coefficient ([4]; at 296 nm) was 21,800 M^−1cm^−1.
